Measurements from US20240190889A1, “NEW CYCLOPENTA-THIENO-DIAZEPINE DERIVATIVES AS GABA A GAMMA1 POSITIVE ALLOSTERIC MODULATORS” (Hoffmann-La Roche Inc., priority 2021, published 2024).
Like-named read-outs stand apart in the source and are kept apart here.

What was measured:
[1] = target: human GABAA α5β2γ1 receptor (Homo sapiens (Human), UniProt P31644+Q8N1C3); test: Radioligand binding assay, competition for [3H]RO7239181, γ1-containing GABAA subtypes; conditions: membranes from HEK293F cells, mean of two determinations
Experimental: (§1) Membrane Preparation and Binding Assay for γ1-containing GABAA Subtypes
The affinity of compounds at GABAA γ1 subunit-containing receptors was measured by competition for [^3H]RO7239181 (67.3 Ci/mmol: Roche) binding to membranes from HEK293F cells (ThermoFisher R79007) expressing human (transiently transfected) receptors of composition α5β2γ1, α2β2γ1, α1β2γ1. For better protein expression of the α2 subunit-containing receptors, the 28 amino acid long signal peptide (Metl to Ala28) of the human GABAA α2 subunit was substituted by the 31 amino acid long signal peptide (Met1 to Ser31) of human GABAA α5 subunit.
(§2) Harvested pellets from HEK293F cells expressing the different GABAA receptor subtypes were resuspended in Mannitol Buffer pH 7.2-7.4 (Mannitol 0.29 M, Tricthylamine 10 mM. Acetic acid 10 mM. EDTA 1 mM plus protease inhibitors (20 tablets Complete. Roche Diagnostics Cat. No. 05 056 489 001 per liter)), washed two times and then resuspended at 1:10 to 1:15 dilution in the same buffer. Cell disruption was performed by stirring the suspension in a Parr vessel #4637 at 435 psi for 15 minutes, and then the suspensions were centrifuged at 1000×g for 15 minutes at 4° C. (Beckman Avanti J-HC: rotor JS-4.2). The supernatant (S1) was transferred in a 21 Schott flask and the pellet (P1) was resuspended with Mannitol Buffer up to 175 ml. The resuspended pellet was transferred into a 250 ml Corning centrifugal beaker and centrifuged at 1500 ×g for 10 minutes at 4° C. (Beckman Avanti J-HC: rotor JS-4.2). The supernatant (S1) was then transferred in the 21 Schott flask and the pellet was discarded. The supernatants (S1) were centrifuged in 500ml Beckman polypropylene centrifugal beaker at 15 000×g for 30 minutes at 4° C. (Beckman Avanti J-20 XP; rotor JLA-10.500). The pellet (P2) was resuspended with Mannitol Buffer 1:1 and frozen at −80° C. The supernatant (S2) was centrifuged in 100 ml Beckman polypropylene centrifugal tubes at 48000×g for 50 minutes at 4 °C (Beckman Avanti J-20 XP: rotor JA-18). The supernatant (S3) was discarded and the pellet (P3) was resuspended with 1:1 Mannitol Buffer. The P2 and P3 protein concentration was determined with the BIORAD Standard assay method with bovine serum albumin as standard and measured on the NANO-Drop 1000. The membrane suspension was aliquots (500μl per tube) and stored at −80° C. until required.
(§3) Membrane homogenates were resuspended and polytronised (Polytron PT1200E Kinematica AG) in Potassium Phosphate 10 mM, KCl 100 mM binding buffer at pH 7.4 to a final assay concentration determined with a previous experiment.
(§4) Radioligand binding assays were carried out in a volume of 200 μL (96-well plates) which contained 100 μL of cell membranes. [^3H]RO7239181 at a concentration of 1.5 nM (α5β2γ1) or 20-30 nM (α1β2γ1, α2β2γ1) and the test compound in the range of [0.3-10000]33 10^−9 M. Nonspecific binding was defined by 10×10^6 (α5β2γ1) and 30×10^6 M RO7239181 and typically represented less than 5% (α5β2γ1) and less than 20% (α1β2γ1, α2β2γ1) of the total binding. Assays were incubated to equilibrium for 1 hour at 4° C. and then, membranes were filtered onto unifilter (96-well white microplate with bonded GF/C filters preincubated 20-50 minutes in 0.3% Polyethylenimine) with a Filtermate 196 harvester (Packard BioScience) and washed 4 times with cold Potassium Phosphate 10 mM pH 7.4. KCl 100 mM binding buffer. After anhydrousing, filter-retained radioactivity was detected by liquid scintillation counting. Ki values were calculated using Excel-Fit (Microsoft) and are the means of two determinations.
Representative test results, obtained by the above described assay measuring binding affinity to HEK293 cells expressing human (h) receptors, are shown in the Table 1.

[2] = target: human GABAA α2β2γ1 receptor (Homo sapiens (Human), UniProt P47869+Q8N1C3); test: as above
Experimental: as §1
The affinity of compounds at GABAA γ1 subunit-containing receptors was measured by competition for [^3H]RO7239181 (67.3 Ci/mmol: Roche) binding to membranes from HEK293F cells (ThermoFisher R79007) expressing human (transiently transfected) receptors of composition α5β2γ1, α2β2γ1, α1β2γ1.
as §2, §3
as §4, with “[^3H]RO7239181 at a concentration of 1.5 nM (α5β2γ1) or 20-30 nM (α1β2γ1, α2β2γ1) and the test compound in the range of [0.3-10000]33 10^−9 M. Nonspecific binding was defined by 10×10^6 (α5β2γ1) and 30×10^6 M RO7239181 and typically represented less than 5% (α5β2γ1) and less than 20% (α1β2γ1, α2β2γ1) of the total binding.” left out

[3] = read-out: Ki h-GABAA α2β2γ1, membranes from HEK293F cells, [3H]RO7239181 20-30 nM, mean of two determinations

Work on C[C@@H]1N=C(c2c(F)cccc2F)c2c(sc3c2C[C@@H](C(F)F)C3)-n2nc(C(=O)N3CCS(=O)(=O)CC3)nc21 [Example 19, [(7S,13R)-13-(difluoromethyl)-9-(2,6-difluorophenyl)-7-methyl-16-thia-2,3,5,8-tetrazatetracyclo [8.6.0.02,6.011,15]hexadeca-1(10),3,5,8,11(15)-pentaen-4-yl]-(1,1-dioxo-1,4-thiazinan-4-yl)methanone] yielded a Ki [1] of 4.6 nM, a Ki [2] of 5.4 nM and a Ki [2, 3] of 5.4 nM.

C[C@@H]1N=C(c2c(F)cccc2F)c2c(sc3c2C[C@@H](C(F)F)C3)-n2c(C3CC3)nnc21 [Example 8, (7S,13R)-3-cyclopropyl-13-(difluoromethyl)-9-(2,6-difluorophenyl)-7-methyl-16-thia-2,4,5,8-tetrazatetracyclo [8.6.0.02,6.011,15]hexadeca-1(10),3,5,8,11(15)-pentaene] gave a Ki [1] of 1.9 nM, a Ki [2] of 4.6 nM and a Ki [2, 3] of 4.6 nM.

Molecule C[C@@H]1N=C(c2c(F)cccc2Cl)c2c(sc3c2C[C@@H](C(F)F)C3)-n2c(C3CC3)nnc21 [Example 11, (7S,13R)-9-(2-chloro-6-fluoro-phenyl)-3-cyclopropyl-13-(difluoromethyl)-7-methyl-16-thia-2,4,5,8-tetrazatetracyclo [8.6.0.02,6.011,15]hexadeca-1(10),3,5,8,11(15)-pentaene] has a Ki [1] of 3.4 nM, a Ki [2] of 10.3 nM and a Ki [2, 3] of 10.3 nM.

C[C@@H]1N=C(c2c(F)cccc2Cl)c2c(sc3c2C[C@@H](C(F)F)C3)-n2c(-c3cccnn3)nnc21 [Example 12, (7S,13R)-9-(2-chloro-6-fluoro-phenyl)-13-(difluoromethyl)-7-methyl-3-pyridazin-3-yl-16-thia-2,4,5,8-tetrazatetracyclo [8.6.0.02,6.011,15]hexadeca-1(10),3,5,8,11(15)-pentaene] gave a Ki [1] of 3.7 nM, a Ki [2] of 13.4 nM and a Ki [2, 3] of 13.4 nM.

Work on Cc1nnc2n1-c1sc3c(c1C(c1c(F)cccc1F)=NC2)C[C@@H](C#N)C3 [Example 2, (13R)-9-(2,6-difluorophenyl)-3-methyl-16-thia-2,4,5,8-tetrazatetracyclo [8.6.0.02,6.011,15]hexadeca-1(10),3,5,8,11(15)-pentaene-13-carbonitrile] yielded a Ki [1] of 16.3 nM, a Ki [2] of 42.7 nM and a Ki [2, 3] of 42.7 nM.
